Like-named read-outs stand apart in the source and are kept apart here.
Test system: Influenza virus
Conditions: mice, ninth day

NC(=O)c1ncn([C@@H]2O[C@H](CO)[C@@H](O)[C@H]2O)n1 [RIBAVIRIN]
% PROTECTION (LUNG LESIONS) TEST (1.6 mg/kg (31 mcg/mouse) I.N., Wilcoxon * p < 0.01, ° p < 0.025): 15% | % PROTECTION (LUNG LESIONS) TEST (100 mg/kg (2000 mcg/mouse) P.OS, * p < 0.01 Wilcoxon): 27%

From patent publication US5374626A, “5'-alkylphosphonylnucleosides as antivirals” (priority 1989, dated 1994)
